According to patent US20250134889A1, “TARGETING IRE1 KINASE AND FMRP FOR PROPHYLAXIS, MANAGEMENT AND TREATMENT OF ATHEROSCLEROSIS” (CEDARS-SINAI MEDICAL CENTER, priority 2022, published 2025):

System: BMDM
Assay: Cholesterol efflux assay
Format: cell-based, mouse
Settings: AMG-18 5 μM 1 hour pre-treatment; APOA1 25 μg/ml or HDL 50 μg/ml acceptors, 6 hours
Experimental: FIGS. 2A-2M depict that FMRP deficiency enhances RCT while reducing foam cell formation in vivo. (Data are mean±SEM. Unpaired t-test with Welch's correction. * P≤0.05, ** P≤0.01, *** P≤0.001.) • 2A. Fmr1^+/+ and Fmr1^−/− mice were injected with AAV_PCSK9 and fed with 16 weeks of WD. Residential PM were stained with Oil Red O (ORO) and imaged (n=7; Scale bar=50 μm). • 2B. Apoe-/mice were fed with WD (12 weeks) and injected with vehicle (DMSO) or AMG-18 (30 mg/kg/day) in the last 4 weeks of WD. Residential PM were stained with ORO and imaged (n=5; Scale bar=50 μm). • 2C-2E. […] Macrophages were pre-loaded with fluorescently labeled cholesterol (16 hours) followed by incubation in efflux medium including APOA1 (25 μg/ml) or HDL (50 μg/ml) as acceptors for 6 hours. % Efflux was calculated as cholesterol signal in medium/cholesterol signal in medium and cell: Cholesterol efflux in (2F) Fmr1+/+ and Fmr1^−/− BMDM (n=4) and in (2G) BMDM that were pre-treated either with DMSO or AMG-18 (5 μM; 1 hour) (n=4). • 2H-2K. […] Protein lysates from macrophages used in FIG. 2C were analyzed by western blotting using specific antibodies for FMRP and β-Actin. • 2M. […]

Cc1ccc2c(NS(=O)(=O)c3ccccc3Cl)cccc2c1Oc1ncccc1-c1ccnc(N[C@H]2CCCNC2)n1 [AMG-18]
cholesterol efflux: enhanced
